Where “and” joins values, the source holds several entries; their conditions need not be identical. Identical values can stand only once. Marks after values point to notes of the source that are not given here.
Assays:
metMb [1] = molecular target: T1, metMb (Equus caballus, UniProt P68082); set-up: method as in PMID 37533298; conditions: dinuclear DNIC, no Cys; cited from earlier work
T1 construct: purchased Sigma

HCEC = experiment: Cytoprotection of HCEC against H2O2 oxidative stress; assay type: cell-based, human; conditions: HCEC pretreated 24 h with 75 μM DNIC–COOH, then H2O2
Method: Cell viability study of MSC, N2a, and HCEC cells with or without the treatment of DNIC–COOH was performed using a Cell Counting Kit-8 (IMT Formosa New Materials Co., Ltd., Taiwan) according to the manufacturer’s protocol. Briefly, cells were seeded into a 96-well plate at a density of 4 × 10^3 cells/well for MSC, 1 × 10^4 cells/well for N2a, and 8 × 10^3 cells/well for HCEC, respectively, and incubated overnight. On the next day, cells were treated with DNIC–COOH at different concentrations and incubated for 24 h. The culture medium was then removed before the cells were washed with DPBS. After addition of fresh medium containing CCK-8 solution to the cells and incubation for 1–3 h, the absorbance at 450 nm was then measured on a microplate reader (SpectraMax iD3, Molecular Devices, San Jose, CA) with a reference wavelength of 650 nm. […]
To investigate the capacity of DNIC preconditioning to protect the MSC cells against elevated oxidative stress, cells were pretreated with 2.5 μM of DNIC–COOMe or 100 μM of DNIC–COOH for 8 h before being incubated with 250 μM H2O2 for another 24 h. Cell viability was evaluated by live/dead staining or CCK-8 assay. In a similar manner, DNIC-induced cytoprotective effect in HCECs was evaluated through pretreatment of 1 μM of DNIC–COOMe or 75 μM of DNIC–COOH for 24 h.

metMb [2] = molecular target: T1, metMb; experiment: Transfer of NO− to metMb yielding MbNO (UV–vis); assay type: biochemical; conditions: for reaction time for complete conversion of metMb into MbNO: metMb 5 μM/Cys 200 μM, generated [(NO)2Fe(SR)(SCys)]n−, phosphate buffer (pH 7.4), anaerobic; for change of UV–vis absorption bands of metMb (NO−-transfer): metMb in the presence of BSA (50 mg/mL)
Method: After addition of 30 μL of 500 μM stock solution of DNIC–COOH (in DMSO) to a 4 mL quartz cuvette containing 5 μM metMb and 200 μM Cys in 3 mL of 25 mM PBS (pH 7.4), UV–vis spectra for this mixture solution were measured every 30 min. Transformation of […] into MbNO was achieved after reaction for 4 h based on the complete shift of UV–vis absorption bands from (410, 502, and 629) nm to (419, 548, and 578) nm.
Reactions of (a) 5 μM of DNIC–COOMe with 5 μM of metMb in the presence of 200 μM of Cys, (b) 5 μM of DNIC–COOH/DNIC–COOMe with 5 μM of deoxyMb in the presence of 200 μM of Cys, and (c) 5 μM of DNIC–COOH/DNIC–COOMe with 5 μM of metMb in the presence of 50 mg/mL BSA were performed under a similar manner.

deoxyMb = tested on: deoxyMb; set-up: method as in PMID 37533298; conditions: dinuclear DNIC, no Cys; cited from earlier work
HMOX1 gene = experiment: Activation of HMOX1/HO-1, stated jointly for MSC/N2a/HCEC (incl. PTIO/ODQ); assay type: cell-based
Method: After treatment of (1) 100 μM of DNIC–COOH to MSC, (2) 100 μM of DNIC–COOH to N2a, (3) 75 μM of DNIC–COOH to HCEC, (4) 2.5 μM of DNIC–COOMe to MSC, (5) 10 μM of DNIC–COOMe to N2a, and (6) 1 μM of DNIC–COOMe to HCEC, respectively, the total RNA of the treated cells was extracted using TRIzol Reagent (Thermo Fisher Scientific) in order to assess the time-dependent change in the mRNA level of HO-1. After the synthesis of complementary DNA with the High-Capacity Reverse Transcription Kit, qPCR was conducted using Power SYBR Green PCR Master Mix with the StepOnePlus Real-Time PCR System (Thermo Fisher Scientific). The primer sequences were as follows: HMOX1 forward 5′-[…]-3′ and reverse 5′-[…]-3′; RPL13A forward 5′-[…]-3′ and reverse 5′- […]-3′; GAPDH forward 5′-[…]-3′ and reverse 5′-[…]-3′. The relative mRNA levels of target genes were determined by a comparative threshold cycle method and normalized to that of RPL13A (or GAPDH). The mRNA level of HO-1 in the MSC, N2a, and HCEC cells, respectively, that received the (1) sequential treatments of 1H-[1,2,4]oxadiazolo-[4,3-a]quinoxalin-1-one (ODQ, 10 μM for 1 h) and DNIC–COOH (100 μM in MSC for 3 h, 100 μM in N2a for 10 h, and 75 μM in HCEC for 6 h) or (2) cotreatment of 2-phenyl-4,4,5,5-tetramethylimidazoline-1-oxyl-3-oxide ([…]) and DNIC–COOH (100 μM in MSC for 3 h, 100 μM in N2a for 10 h, and 75 μM in HCEC for 6 h) was also evaluated under a similar procedure.

T1 sequence (P68082 2-154 limits assumed): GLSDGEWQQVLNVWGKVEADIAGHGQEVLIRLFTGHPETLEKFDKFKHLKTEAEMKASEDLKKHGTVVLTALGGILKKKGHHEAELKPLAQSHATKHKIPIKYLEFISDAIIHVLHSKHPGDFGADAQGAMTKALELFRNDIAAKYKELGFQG

| SMILES | reactivity toward the Fe3+-porphyrin center in metMb (metMb [1]) | survival under mimic oxidative stress condition (HCEC) | reaction time for complete conversion of metMb into MbNO (metMb [2]) | reaction time for complete conversion of metMb into MbNO (metMb [2]; listed as DNIC-COOH) [h] | change of UV–vis absorption bands of metMb (NO−-transfer) (metMb [2]) | nitrosylation of the Fe2+-porphyrin center in deoxyMb (deoxyMb) | activation of cytoprotective HO-1 (HMOX1 gene; at t = 3–10 h (abstract)) | effect on transcriptional activation of HMOX1 gene by DNIC–COOH (HMOX1 gene; cotreatment of PTIO to MSC/HCEC) | effect on transcriptional activation of HMOX1 gene by DNIC–COOH (HMOX1 gene; higher concentration of PTIO (100 μM) to N2a) | effect on transcriptional activation of HMOX1 gene by DNIC–COOH (HMOX1 gene; pretreatment of ODQ to MSC/N2a/HCEC) | reaction time for complete conversion of metMb into MbNO (metMb [2]; listed as DNIC-COOMe) [h] |
| --- | --- | --- | --- | --- | --- | --- | --- | --- | --- | --- | --- |
| O=[N][Fe]1([N]=O)[SH](CCC(=O)O)[Fe]([N]=O)([N]=O)[SH]1CCC(=O)O (stereo not shown) [DNIC–COOH, [(NO)2Fe(μ-SCH2CH2COOH)2Fe(NO)2]] | inert | enhanced survival | 4 h and 4.0 ^f h | 4.0 | no change | efficient nitrosylation | 50–150 fold change | no significant perturbation | reduced transcriptional activation | no significant perturbation |  |
| COC(=O)CC[SH]1[Fe]([N]=O)([N]=O)[SH](CCC(=O)OC)[Fe]1([N]=O)[N]=O (stereo not shown) [DNIC–COOMe, [(NO)2Fe(μ-SCH2CH2COOCH3)2Fe(NO)2]] |  |  | 4.0 ^f h |  | no change |  |  |  |  |  | 4.0 |

From paper PMC11040670, “Mechanistic and Kinetic Insights into Cellular Uptake of Biomimetic Dinitrosyl Iron Complexes and Intracellular Delivery of NO for Activation of Cytoprotective HO-1” (JACS Au, 2024)
